Data as given in patent US8198279B2, “Pyrido[2,3-b]pyrazin-8-substituted compounds and their use” (Institute of Cancer Research: Royal Cancer Hospital (The), priority 2007, dated 2012).
“And” between values parts separate entries of the source, which are not always exact repeats. Equal values may be shown once.

target: T1, B-RAF (Homo sapiens, UniProt P15056, V600E); assay: DELFIA Kinase Assay; type: biochemical; conditions: 100 μM ATP, GST-MEK substrate
T1 construct: made in house
Description: Biological Methods—DELFIA Kinase Assay
Compounds were assessed by a kinase assay performed according to the following protocol.
DKB1 (DKB with B-RAF and MEK Protein):
Combine 4950 μL of DKB and 50 μL of 2.5 mg/ml GST-MEK stock (to give […] of MEK per 40 μL). Then add 22.5 μL of B-RAF to give ˜0.2 μL of B-RAF per 40 μL.
100 mM stock, dilute to 500 μM to give 100 μM final concentration in assay.
• 1. Preblock wells with 5% milk in TBS for 1 hour. • 2. Wash wells with 3× with 200 μL TBS. • 3. Plate out 40 μL of DKB1 for all inhibitors (test compounds), DMSO control, and optionally other control compounds. • 4. Plate out 40 μL of DKB2 for BO and EV wells. • 5. Add inhibitors (test compounds) at 0.5 μL per well according to desired plate layout. • 6. Add 0.5 μL DMSO to vehicle control wells. • 7. Add 2 μL of B-RAF to BO and EV wells. • 8. Pre-incubate with inhibitors (test compounds) for 10 minutes at room temperature with shaking. • 9. Add 10 μL of 500 μM ATP stock, in DKB, to give 100 μM assay concentration. • 10. Seal plates with TopSeal and incubate at room temperature with shaking for 45 minutes. • 11. Wash plates 3× with 200 μL 0.1% Tween20/Water to terminate reaction. • 12. Add 50 μL per well of antibody mix and incubate for 1 hour at room temperature with shaking. • 13. Wash plates 3× with 200 μL 0.1% Tween20/Water. • 14. Add 100 μL DELFIA enhancement solution per well, cover in foil, and incubate at room temperature for 30 minutes with shaking. • 15. Read on Victor using Europium protocol.
Values for the blank (Empty Vector) are subtracted from all values. The DMSO controls are set as 100% activity and assay points (the response) are calculated as a percentage of the DMSO control. Data are plotted using Graphpad Prism software and a non-linear regression line is calculated using a variable slope sigmoidal dose-response equation (Y=Bottom+(Top−Bottom)/(1+10^((LogEC50−X)*HillSlope)) where X is the logarithm of concentration. Y is the response). The IC50 generated by this procedure is the concentration of the drug that produces a percentage control fluorescence value midway between the saturation, and zero-effect plateaus. Three independent assays are usually performed and the mean IC50 is reported.

T1 sequence (P15056 whole entry V600E): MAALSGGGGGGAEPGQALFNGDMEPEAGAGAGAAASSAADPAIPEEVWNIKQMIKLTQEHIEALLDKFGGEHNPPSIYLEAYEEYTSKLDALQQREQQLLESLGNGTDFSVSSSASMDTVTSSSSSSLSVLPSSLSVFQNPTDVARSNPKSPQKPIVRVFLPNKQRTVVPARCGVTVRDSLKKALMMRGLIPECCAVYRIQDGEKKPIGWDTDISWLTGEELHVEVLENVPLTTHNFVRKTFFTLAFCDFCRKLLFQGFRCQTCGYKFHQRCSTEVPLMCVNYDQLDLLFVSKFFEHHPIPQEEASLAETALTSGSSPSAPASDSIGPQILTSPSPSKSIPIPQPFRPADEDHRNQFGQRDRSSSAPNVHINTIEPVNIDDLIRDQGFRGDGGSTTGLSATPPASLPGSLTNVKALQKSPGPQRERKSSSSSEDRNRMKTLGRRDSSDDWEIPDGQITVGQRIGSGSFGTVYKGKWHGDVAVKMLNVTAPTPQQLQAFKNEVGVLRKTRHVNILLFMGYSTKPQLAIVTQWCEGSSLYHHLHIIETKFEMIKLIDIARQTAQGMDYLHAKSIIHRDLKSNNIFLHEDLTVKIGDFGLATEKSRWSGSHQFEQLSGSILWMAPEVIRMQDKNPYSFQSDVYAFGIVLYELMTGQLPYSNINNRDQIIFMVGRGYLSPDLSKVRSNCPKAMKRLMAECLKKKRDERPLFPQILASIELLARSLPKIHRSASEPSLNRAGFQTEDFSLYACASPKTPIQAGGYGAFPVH

Row | IC50 | SMILES
1 | < 1 µM and 0.1 to 1 µM | CC(C)(C)c1cc(NC(=O)c2cccc(Oc3ccnc4[nH]c(=O)cnc34)c2)n(-c2ccccc2)n1 [AA-001, N-(3-tert-butyl-1-phenyl-1H-pyrazol-5-yl)-3-(3-oxo-3,4-dihydropyrido[2,3-b]pyrazin-8-yloxy)benzamide]
2 | < 0.1 µM | O=C(Nc1cccc(Oc2ccnc3[nH]c(=O)cnc23)c1)c1cccc(OC(F)(F)F)c1 [AA-002, N-(3-(3-oxo-3,4-dihydropyrido[2,3-b]pyrazin-8-yloxy)phenyl)-3-(trifluoro-methoxy)benzamide]
3 | < 0.1 µM | CC(C)(C)c1cccc(C(=O)Nc2cccc(Oc3ccnc4[nH]c(=O)cnc34)c2)c1 [AA-003, 3-tert-butyl-N-(3-(3-oxo-3,4-dihydropyrido[2,3-b]pyrazin-8-yloxy)phenyl)benzamide]
4 | < 0.1 µM | Cc1nc2c(Oc3cccc(NC(=O)c4cccc(OC(F)(F)F)c4)c3)ccnc2[nH]c1=O [AA-004]
5 | < 0.1 µM | Cc1nc2c(Oc3cccc(NC(=O)c4cccc(C(C)(C)C)c4)c3)ccnc2[nH]c1=O [AA-005, 3-tert-butyl-N-(3-(2-methyl-3-oxo-3,4-dihydropyrido[2,3-b]pyrazin-8-yloxy)phenyl)benzamide]
6 | < 0.1 µM | Cc1ccc(-n2nc(C(C)(C)C)cc2NC(=O)Nc2cccc(Oc3ccnc4[nH]c(=O)cnc34)c2)cc1 [AA-006, 1-(3-tert-butyl-1-p-tolyl-1H-pyrazol-5-yl)-3-(3-(3-oxo-3,4-dihydropyrido[2,3-b]pyrazin-8-yloxy)phenyl)urea]
7 | < 0.1 µM | CC(C)(C)c1cc(NC(=O)Nc2ccc(Oc3ccnc4[nH]c(=O)cnc34)c3ccccc23)n(-c2ccccc2)n1 [AA-008, 1-(3-tert-butyl-1-phenyl-1H-pyrazol-5-yl)-3-(4-(3-oxo-3,4-dihydropyrido[2,3-b]pyrazin-8-yloxy)naphthalen-1-yl)urea]
8 | < 0.1 µM | Cc1nc2c(Oc3ccc(NC(=O)Nc4cc(C(C)(C)C)nn4-c4ccccc4)c4ccccc34)ccnc2[nH]c1=O [AA-009, 1-(3-tert-butyl-1-phenyl-1H-pyrazol-5-yl)-3-(4-(2-methyl-3-oxo-3,4-dihydropyrido[2,3-b]pyrazin-8-yloxy)naphthalen-1-yl)urea]
9 | < 0.1 µM | Cc1ccc(-n2nc(C(C)(C)C)cc2NC(=O)Nc2ccc(Oc3ccnc4[nH]c(=O)cnc34)c3ccccc23)cc1 [AA-010, 1-(3-tert-butyl-1-p-tolyl-1H-pyrazol-5-yl)-3-(4-(3-oxo-3,4-dihydropyrido[2,3-b]pyrazin-8-yloxy)naphthalen-1-yl)urea]
10 | < 0.1 µM | Cc1ccc(-n2nc(C(C)(C)C)cc2NC(=O)Nc2ccc(Oc3ccnc4[nH]c(=O)c(C)nc34)c3ccccc23)cc1 [AA-011, 1-(3-tert-butyl-1-p-tolyl-1H-pyrazol-5-yl)-3-(4-(2-methyl-3-oxo-3,4-dihydropyrido[2,3-b]pyrazin-8-yloxy)naphthalen-1-yl)urea]
11 | < 0.1 µM | Cc1nc2c(Oc3ccc(NC(=O)Nc4cc(C(F)(F)F)ccc4F)c4ccccc34)ccnc2[nH]c1=O [AA-014, 1-(2-fluoro-5-(trifluoromethyl)phenyl)-3-(4-(2-methyl-3-oxo-3,4-dihydropyrido[2,3-b]pyrazin-8-yloxy)naphthalen-1-yl)urea]
12 | < 0.1 µM | Nc1nc2c(Oc3ccc(NC(=O)Nc4cc(C(F)(F)F)ccc4F)c4ccccc34)ccnc2[nH]c1=O [AA-015, 1-(4-(2-amino-3-oxo-3,4-dihydropyrido[2,3-b]pyrazin-8-yloxy)naphthalen-1-yl)-3-(2-fluoro-5-(trifluoromethyl)phenyl)urea]
13 | < 1 µM and 0.1 to 1 µM and 0.252 µM | Cc1ccc(-n2nc(C(C)(C)C)cc2NC(=O)Nc2ccc(Oc3ccnc4[nH]c(=O)cnc34)cc2)cc1 [AA-016, 1-(3-tert-butyl-1-p-tolyl-1H-pyrazol-5-yl)-3-(4-(3-oxo-3,4-dihydropyrido[2,3-b]pyrazin-8-yloxy)phenyl)urea]
14 | < 0.1 µM | CSc1cc(Oc2ccnc3[nH]c(=O)cnc23)ccc1NC(=O)Nc1cc(C(C)(C)C)nn1-c1ccc(C)cc1 [AA-017, 1-(3-tert-butyl-1-p-tolyl-1H-pyrazol-5-yl)-3-(2-(methylthio)-4-(3-oxo-3,4-dihydropyrido[2,3-b]pyrazin-8-yloxy)phenyl)urea]
15 | < 0.1 µM | Cc1ccc(-n2nc(C(C)(C)C)cc2NC(=O)Nc2ccc(Oc3ccnc4[nH]c(=O)cnc34)cc2F)cc1 [AA-018, 1-(3-tert-butyl-1-p-tolyl-1H-pyrazol-5-yl)-3-(2-fluoro-4-(3-oxo-3,4-dihydropyrido[3,2-b]pyrazin-8-yloxy)phenyl)urea]
16 | < 0.1 µM | CC(C)(C)c1cc(NC(=O)Nc2ccc(Oc3ccnc4[nH]c(=O)cnc34)cc2F)n(-c2ccccc2)n1 [AA-019, 1-(3-tert-butyl-1-phenyl-1H-pyrazol-5-yl)-3-(2-fluoro-4-(3-oxo-3,4-dihydropyrido[3,2-b]pyrazin-8-yloxy)phenyl)urea]
17 | < 0.1 µM | O=C(Nc1ccc(Oc2ccnc3[nH]c(=O)cnc23)cc1)Nc1ccc(Cl)c(C(F)(F)F)c1 [AA-020, 1-(4-chloro-3-(trifluoromethyl)phenyl)-3-(4-(3-oxo-3,4-dihydropyrido[2,3-b]pyrazin-8-yloxy)phenyl)urea]
18 | < 1 µM and 0.1 to 1 µM | Nc1nc2nccc(Oc3ccc(NC(=O)Nc4cc(C(F)(F)F)ccc4F)c(F)c3)c2[nH]c1=O [AA-022, 1-(4-(3-amino-2-oxo-1,2-dihydropyrido[2,3-b]pyrazin-8-yloxy)-2-fluorophenyl)-3-(2-fluoro-5-(trifluoromethyl)phenyl)urea]
19 | < 0.1 µM | CSc1cc(Oc2ccnc3[nH]c(=O)cnc23)ccc1NC(=O)Nc1ccc(Cl)c(C(F)(F)F)c1 [AA-023]
20 | < 0.1 µM | CSc1cc(Oc2ccnc3[nH]c(=O)cnc23)ccc1NC(=O)Nc1cc(C(F)(F)F)ccc1F [AA-024, 1-(2-fluoro-5-(trifluoromethyl)phenyl)-3-(2-(methylthio)-4-(3-oxo-3,4-dihydropyrido[3,2-b]pyrazin-8-yloxy)phenyl)urea]
21 | < 0.1 µM | O=C(Nc1ccc(Cl)c(C(F)(F)F)c1)Nc1ccc(Oc2ccnc3[nH]c(=O)cnc23)cc1F [AA-025, 1-(4-Chloro-3-(trifluoromethyl)phenyl)-3-(2-fluoro-4-(3-oxo-3,4-dihydropyrido[2,3-b]pyrazin-8-yloxy)phenyl)urea]
22 | < 0.1 µM | O=C(Nc1ccc(Oc2ccnc3[nH]c(=O)cnc23)cc1F)Nc1cc(C(F)(F)F)ccc1F [AA-026, 1-(2-Fluoro-5-(trifluoromethyl)phenyl)-3-(2-fluoro-4-(3-oxo-3,4-dihydropyrido[2,3-b]pyrazin-8-yloxy)phenyl)urea]
23 | < 0.1 µM | O=C(Nc1ccc(Sc2ccnc3[nH]c(=O)cnc23)cc1)Nc1cc(C(F)(F)F)ccc1F [AA-027, 1-(2-Fluoro-5-(trifluoromethyl)phenyl)-3-(4-(3-oxo-3,4-dihydropyrido[2,3-b]pyrazin-8-ylthio)phenyl)urea]
24 | < 0.1 µM | Cc1nc2c(Oc3ccc(NC(=O)Nc4cc(C(F)(F)F)ccc4F)c(F)c3)ccnc2[nH]c1=O [AA-028, 1-(2-Fluoro-4-(2-methyl-3-oxo-3,4-dihydropyrido[2,3-b]pyrazin-8-yloxy)phenyl)-3-(2-fluoro-5-(trifluoromethyl)phenyl)urea]
25 | < 0.1 µM | CC(C)(C)c1cccc(C(=O)Nc2cccc(Oc3ccnc4ncc(=O)[nH]c34)c2)c1 [AA-029, 3-tert-butyl-N-(3-(2-oxo-1,2-dihydropyrido[2,3-b]pyrazin-8-yloxy)phenyl)benzamide]
26 | < 1 µM and 0.1 to 1 µM | O=C(Nc1cccc(Oc2ccnc3ncc(=O)[nH]c23)c1)c1cccc(OC(F)(F)F)c1 [AA-030, N-(3-(2-oxo-1,2-dihydropyrido[2,3-b]pyrazin-8-yloxy)phenyl)-3-(trifluoromethoxy)benzamide]
27 | < 1 µM and 0.1 to 1 µM | Cc1ccc(-n2nc(C(C)(C)C)cc2NC(=O)Nc2cccc(Oc3ccnc4ncc(=O)[nH]c34)c2)cc1 [AA-031, 1-(3-tert-butyl-1-p-tolyl-1H-pyrazol-5-yl)-3-(3-(2-oxo-1,2-dihydropyrido[2,3-b]pyrazin-8-yloxy)phenyl)urea]
28 | < 0.1 µM | O=C(Nc1cccc(Oc2ccnc3ncc(=O)[nH]c23)c1)Nc1cc(C(F)(F)F)ccc1F [AA-032, 1-(2-fluoro-5-(trifluoromethyl)phenyl)-3-(3-(2-oxo-1,2-dihydropyrido[2,3-b]pyrazin-8-yloxy)phenyl)urea]
29 | < 1 µM and 0.1 to 1 µM | CC(C)(C)c1cc(NC(=O)Nc2ccc(Oc3ccnc4ncc(=O)[nH]c34)c3ccccc23)n(-c2ccccc2)n1 [AA-034, 1-(3-tert-butyl-1-phenyl-1H-pyrazol-5-yl)-3-(4-(2-oxo-1,2-dihydropyrido[2,3-b]pyrazin-8-yloxy)naphthalen-1-yl)urea]
